Test results as given in publication PMC7311426, “An amphipathic peptide with antibiotic activity against multidrug-resistant Gram-negative bacteria” (Nature Communications, 2020).
Marks after values point to notes of the source that are not given here.

Assays:
Assay in all cases: microbe, parasite or virus in culture
[1] = tested on: A. baumannii; details: mode of 6 replicates
How it was run: (§1)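 MICs were scored by eye after 18-20 h static incubation at 37 °C, with bacteria at 5 × 10^5 CFU mL^−1 in MHB. Peptides were serially diluted 2-fold over 12 points, top 128 or 64 μg mL^−1. CAMHB (CLSI) and 1% agarose-MHB variants were also run, at least six replicates.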

[2] = tested on: P. aeruginosa; details: mode of 6 replicates
How it was run: as §1

[3] = tested on: S. enterica Typhi; details: S. enterica Typhi ATCC 14028 control strain, CDC 6516-60; CAMHB; mode of 6 replicates
How it was run: as §1

[4] = tested on: K. pneumoniae; details: mode of 6 replicates
How it was run: as §1

[5] = tested on: S. aureus; details: S. aureus ATCC 25923 MSSA; MHB; mode of 6 replicates
How it was run: as §1

[6] = tested on: E. coli
How it was run: as §1

[7] = tested on: A. baumannii clinical isolates
How it was run: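 MIC90 from CLSI broth microdilution (M07-A9) in two clinical-isolate panels. US panel (331 isolates, 2010-2012): AA139 diluted in 0.01% acetic acid/0.1% BSA. Worldwide panel (445 isolates, 2011-2013, four regions): CAMHB, with 0.002% Tween 80 added for AA139 and polymyxin B.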

colistin
BMD MIC ([1]; A. baumannii ATCC 19636 type strain, CAMHB): 0.06 µg/mL | BMD MIC ([1]; A. baumannii ATCC 19636 type strain, MHB): 0.06 µg/mL | BMD MIC ([1]; A. baumannii Greece CI, XDR, PmxR, MHB): >32 µg/mL | BMD MIC ([2]; P. aeruginosa ATCC 27853 control strain, CAMHB): 0.125 µg/mL | BMD MIC ([2]; P. aeruginosa ATCC 27853 control strain, MHB): 0.125 µg/mL | BMD MIC ([2]; P. aeruginosa FADDI-070, MDR, PmxR, MHB/CAMHB): 64 µg/mL | BMD MIC [3]: 0.03 µg/mL | BMD MIC ([4]; K. pneumoniae ATCC 13883 type strain (polymyxin/colistin heteroresistant), MHB): 0.03-4# μg mL-1 | BMD MIC ([4]; K. pneumoniae ATCC 700603 (K6), MDR, OXA-2/SHV-18, CAMHB): 0.125 µg/mL | BMD MIC ([4]; K. pneumoniae ATCC 700603 (K6), MDR, OXA-2/SHV-18, MHB): 0.03 µg/mL | BMD MIC ([4]; K. pneumoniae BAA-2146, MDR, ESBL, NDM-1 pos, MHB): 0.06 µg/mL | BMD MIC ([4]; K. pneumoniae Greece CI 8_GR_13, XDR, KPC-2, PmxR, MHB): >64 µg/mL | BMD MIC [5]: >128 µg/mL | BMD MIC ([6]; E. coli ATCC 25922 FDA control strain, CAMHB, mode of 6 replicates): 0.06 to 0.125 µg/mL | BMD MIC ([6]; E. coli ATCC 25922 FDA control strain, MHB, mode of 6 independent biological replicates): 0.25 µg/mL | BMD MIC ([6]; E. coli ATCC 700926 K12 (MG1655), CAMHB, mode of 6 replicates): ≤0.03 µg/mL | BMD MIC ([6]; E. coli ATCC 700928 CFT073 UPEC, CAMHB, mode of 6 replicates): ≤0.25 µg/mL | BMD MIC ([6]; E. coli CI 12-6-83 Hong Kong, mcr-1 pos, ESBL, CAMHB, mode of 6 replicates): 4 µg/mL | MIC ([7]; US isolates 2010-2012, isolate CID 1919446, Rep 1): 2 µg/mL | MIC ([7]; US isolates 2010-2012, isolate CID 1919446, Rep 2): 1 µg/mL | MIC ([7]; US isolates 2010-2012, isolate CID 1919519, Rep 1): 1 µg/mL | MIC ([7]; US isolates 2010-2012, isolate CID 1919519, Rep 2): 0.5 µg/mL | MIC ([7]; US isolates 2010-2012, isolate CID 1919714, Rep 1): > 32 µg/mL | MIC ([7]; US isolates 2010-2012, isolate CID 1919714, Rep 2): > 32 µg/mL | MIC ([7]; US isolates 2010-2012, isolate CID 1919942, Rep 1): 2 µg/mL | MIC ([7]; US isolates 2010-2012, isolate CID 1919942, Rep 2): 2 µg/mL | MIC ([7]; US isolates 2010-2012, isolate CID 1930670, Rep 1): 4 µg/mL | MIC ([7]; US isolates 2010-2012, isolate CID 1930670, Rep 2): 2 µg/mL | MIC ([7]; US isolates 2010-2012, isolate CID 1930676, Rep 1): 4 µg/mL | MIC ([7]; US isolates 2010-2012, isolate CID 1930676, Rep 2): 2 µg/mL | MIC ([7]; US isolates 2010-2012, isolate CID 2727597, Rep 1): > 32 µg/mL | MIC ([7]; US isolates 2010-2012, isolate CID 2727597, Rep 2): 32 µg/mL | MIC ([7]; US isolates 2010-2012, isolate CID 2727598, Rep 1): 2 µg/mL | MIC ([7]; US isolates 2010-2012, isolate CID 2727598, Rep 2): 2 µg/mL | MIC ([7]; US isolates 2010-2012, isolate CID 2727898, Rep 1): 8 µg/mL | MIC ([7]; US isolates 2010-2012, isolate CID 2727898, Rep 2): 8 µg/mL | MIC ([7]; US isolates 2010-2012, isolate CID 2728115, Rep 1): 4 µg/mL | MIC ([7]; US isolates 2010-2012, isolate CID 2728115, Rep 2): 1 µg/mL | MIC ([7]; US isolates 2010-2012, isolate CID 2728119, Rep 1): 2 µg/mL | MIC ([7]; US isolates 2010-2012, isolate CID 2728119, Rep 2): 2 µg/mL | MIC ([7]; US isolates 2010-2012, isolate CID 2728650, Rep 1): 8 µg/mL | MIC ([7]; US isolates 2010-2012, isolate CID 2728650, Rep 2): 2 µg/mL | MIC ([7]; US isolates 2010-2012, isolate CID 2728663, Rep 1): 0.5 µg/mL | MIC ([7]; US isolates 2010-2012, isolate CID 2728663, Rep 2): 0.5 µg/mL | MIC ([7]; US isolates 2010-2012, isolate CID 2732481, Rep 1): > 32 µg/mL | MIC ([7]; US isolates 2010-2012, isolate CID 2732481, Rep 2): > 32 µg/mL | MIC ([7]; US isolates 2010-2012, isolate CID 2732486, Rep 1): 1 µg/mL | MIC ([7]; US isolates 2010-2012, isolate CID 2732486, Rep 2): 1 µg/mL | MIC ([7]; US isolates 2010-2012, isolate CID 2762740, Rep 1): > 32 µg/mL | MIC ([7]; US isolates 2010-2012, isolate CID 2762740, Rep 2): 32 µg/mL | MIC ([7]; US isolates 2010-2012, isolate CID 2801947, Rep 1): 1 µg/mL | MIC ([7]; US isolates 2010-2012, isolate CID 2801947, Rep 2): 0.5 µg/mL | MIC ([7]; US isolates 2010-2012, isolate CID 2801949, Rep 1): 0.25 µg/mL | MIC ([7]; US isolates 2010-2012, isolate CID 2801949, Rep 2): 0.5 µg/mL | MIC ([7]; US isolates 2010-2012, isolate CID 2802027, Rep 1): 0.5 µg/mL | MIC ([7]; US isolates 2010-2012, isolate CID 2802027, Rep 2): 1 µg/mL | MIC ([7]; US isolates 2010-2012, isolate CID 2802028, Rep 1): 0.5 µg/mL | MIC ([7]; US isolates 2010-2012, isolate CID 2802028, Rep 2): 1 µg/mL | MIC ([7]; US isolates 2010-2012, isolate CID 2802029, Rep 1): 0.5 µg/mL | MIC ([7]; US isolates 2010-2012, isolate CID 2802029, Rep 2): 0.5 µg/mL | MIC ([7]; US isolates 2010-2012, isolate CID 2802031, Rep 1): 0.5 µg/mL | MIC ([7]; US isolates 2010-2012, isolate CID 2802031, Rep 2): 0.5 µg/mL | MIC ([7]; US isolates 2010-2012, isolate CID 2802109, Rep 2): 0.5 µg/mL | MIC ([7]; US isolates 2010-2012, isolate CID 2802111, Rep 2): 0.25 µg/mL | MIC ([7]; US isolates 2010-2012, isolate CID 2802187, Rep 1): 1 µg/mL | MIC ([7]; US isolates 2010-2012, isolate CID 2802187, Rep 2): 1 µg/mL
